Data as given in PubChem BioAssay (NCI).
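Compound exposure: 48 hours, 5 concentrations, 96-well plates. GI50: concentration for 50% inhibition of growth. Definition used: TGI = concentration required for complete inhibition of growth.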

Legend:
Test in all cases: NCI-60 cell line screen, 48 h
OVCAR-8 ovarian = tested on: OVCAR-8 ovarian
OVCAR-4 ovarian = tested on: OVCAR-4 ovarian
UACC-257 melanoma = tested on: UACC-257 melanoma
SF-295 CNS = tested on: SF-295 CNS
CCRF-CEM leukemia = tested on: CCRF-CEM leukemia
786-0 renal = tested on: 786-0 renal
SK-MEL-5 melanoma = tested on: SK-MEL-5 melanoma
UACC-62 melanoma = tested on: UACC-62 melanoma
K-562 leukemia = tested on: K-562 leukemia
HCC-2998 colon = tested on: HCC-2998 colon
OVCAR-5 ovarian = tested on: OVCAR-5 ovarian
MALME-3M melanoma = tested on: MALME-3M melanoma
HL-60(TB) leukemia = tested on: HL-60(TB) leukemia
HOP-62 NSCLC = tested on: HOP-62 NSCLC
SK-MEL-2 melanoma = tested on: SK-MEL-2 melanoma
SN12C renal = tested on: SN12C renal
SF-268 CNS = tested on: SF-268 CNS
OVCAR-3 ovarian = tested on: OVCAR-3 ovarian
RXF 393 renal = tested on: RXF 393 renal
SK-OV-3 ovarian = tested on: SK-OV-3 ovarian
PC-3 prostate = tested on: PC-3 prostate
A498 renal = tested on: A498 renal
SNB-19 CNS = tested on: SNB-19 CNS
MOLT-4 leukemia = tested on: MOLT-4 leukemia
BT-549 breast = tested on: BT-549 breast
SNB-75 CNS = tested on: SNB-75 CNS
TK-10 renal = tested on: TK-10 renal
UO-31 renal = tested on: UO-31 renal
CAKI-1 renal = tested on: CAKI-1 renal
SK-MEL-28 melanoma = tested on: SK-MEL-28 melanoma
ACHN renal = tested on: ACHN renal
DU-145 prostate = tested on: DU-145 prostate
NCI-H226 lung = tested on: NCI-H226 lung
HOP-92 NSCLC = tested on: HOP-92 NSCLC
HT29 colon = tested on: HT29 colon
MDA-MB-435 = tested on: MDA-MB-435
NCI-H460 lung = tested on: NCI-H460 lung
MCF7 breast = tested on: MCF7 breast
KM12 colon = tested on: KM12 colon
LOX IMVI melanoma = tested on: LOX IMVI melanoma
IGROV1 ovarian = tested on: IGROV1 ovarian
T-47D breast = tested on: T-47D breast
NCI-H23 lung = tested on: NCI-H23 lung
M14 melanoma = tested on: M14 melanoma
MDA-MB-231 breast = tested on: MDA-MB-231 breast
NCI/ADR-RES ovarian = tested on: NCI/ADR-RES ovarian
COLO 205 colon = tested on: COLO 205 colon
HS 578T breast = tested on: HS 578T breast
NCI-H522 lung = tested on: NCI-H522 lung
SW-620 colon = tested on: SW-620 colon
HCT-15 colon = tested on: HCT-15 colon
A549 NSCLC = tested on: A549 NSCLC
SF-539 CNS = tested on: SF-539 CNS
RPMI-8226 leukemia = tested on: RPMI-8226 leukemia
HCT-116 colon = tested on: HCT-116 colon
U251 CNS = tested on: U251 CNS

c1coc(-c2c3ccc(=[N+]4CCCCC4)cc-3oc3cc(N4CCCCC4)ccc23)c1
GI50 (OVCAR-8 ovarian): 44.9 nM | TGI (OVCAR-8 ovarian): 1100 nM | GI50 (OVCAR-4 ovarian): 70.7 nM | TGI (OVCAR-4 ovarian): 883 nM | GI50 (UACC-257 melanoma): 43.2 nM | TGI (UACC-257 melanoma): 191 nM | GI50 (SF-295 CNS): 93.7 nM | TGI (SF-295 CNS): 417 nM | GI50 (CCRF-CEM leukemia): 30.6 nM | TGI (CCRF-CEM leukemia): 1110 nM | GI50 (786-0 renal): 45.5 nM | TGI (786-0 renal): 424 nM | GI50 (SK-MEL-5 melanoma): 177 nM | TGI (SK-MEL-5 melanoma): 471 nM | GI50 (UACC-62 melanoma): 102 nM | TGI (UACC-62 melanoma): 1090 nM | GI50 (K-562 leukemia): 54.1 nM | TGI (K-562 leukemia): > 100000 nM | GI50 (HCC-2998 colon): 75.1 nM | TGI (HCC-2998 colon): 331 nM | GI50 (OVCAR-5 ovarian): 94.6 nM | TGI (OVCAR-5 ovarian): 1120 nM | GI50 (MALME-3M melanoma): 42.3 nM | TGI (MALME-3M melanoma): 184 nM | GI50 (HL-60(TB) leukemia): 92.1 nM | TGI (HL-60(TB) leukemia): 468 nM | GI50 (HOP-62 NSCLC): 90.5 nM | TGI (HOP-62 NSCLC): 435 nM | GI50 (SK-MEL-2 melanoma): 119 nM | TGI (SK-MEL-2 melanoma): 1090 nM | GI50 (SN12C renal): 59.1 nM | TGI (SN12C renal): 278 nM | GI50 (SF-268 CNS): 66.7 nM | TGI (SF-268 CNS): 472 nM | GI50 (OVCAR-3 ovarian): 33 nM | TGI (OVCAR-3 ovarian): 126 nM | GI50 (RXF 393 renal): 43.7 nM | TGI (RXF 393 renal): 228 nM | GI50 (SK-OV-3 ovarian): 246 nM | TGI (SK-OV-3 ovarian): 819 nM | GI50 (PC-3 prostate): 70.2 nM | TGI (PC-3 prostate): 1060 nM | GI50 (A498 renal): 78.4 nM | TGI (A498 renal): 568 nM | GI50 (SNB-19 CNS): 195 nM | TGI (SNB-19 CNS): 1560 nM | GI50 (MOLT-4 leukemia): 46.3 nM | TGI (MOLT-4 leukemia): 903 nM | GI50 (BT-549 breast): 191 nM | TGI (BT-549 breast): 865 nM | GI50 (SNB-75 CNS): 90.3 nM | TGI (SNB-75 CNS): 588 nM | GI50 (TK-10 renal): 36 nM | TGI (TK-10 renal): 382 nM | GI50 (UO-31 renal): 35.3 nM | TGI (UO-31 renal): 336 nM | GI50 (CAKI-1 renal): 31.3 nM | TGI (CAKI-1 renal): 105 nM | GI50 (SK-MEL-28 melanoma): 114 nM | TGI (SK-MEL-28 melanoma): 854 nM | GI50 (ACHN renal): 32.7 nM | TGI (ACHN renal): 120 nM | GI50 (DU-145 prostate): 88 nM | TGI (DU-145 prostate): 475 nM | GI50 (NCI-H226 lung): 138 nM | TGI (NCI-H226 lung): 1870 nM | GI50 (HOP-92 NSCLC): 50.2 nM | TGI (HOP-92 NSCLC): 190 nM

CC1(C)CN=C(NN=C(/C=C/c2ccc(C(F)(F)F)cc2)/C=C/c2ccc(C(F)(F)F)cc2)NC1
GI50 (OVCAR-8 ovarian): 1670 nM | TGI (OVCAR-8 ovarian): 3200 nM | GI50 (HT29 colon): 785 nM | TGI (HT29 colon): 2140 nM | GI50 (OVCAR-4 ovarian): 1290 nM | TGI (OVCAR-4 ovarian): 2720 nM | GI50 (MDA-MB-435): 1590 nM | TGI (MDA-MB-435): 3000 nM | GI50 (UACC-257 melanoma): 1560 nM | TGI (UACC-257 melanoma): 2960 nM | GI50 (SF-295 CNS): 1720 nM | TGI (SF-295 CNS): 3280 nM | GI50 (NCI-H460 lung): 1470 nM | TGI (NCI-H460 lung): 3200 nM | GI50 (CCRF-CEM leukemia): 1120 nM | TGI (CCRF-CEM leukemia): 4170 nM | GI50 (786-0 renal): 1780 nM | TGI (786-0 renal): 3420 nM | GI50 (MCF7 breast): 1400 nM | TGI (MCF7 breast): 2920 nM | GI50 (SK-MEL-5 melanoma): 1600 nM | TGI (SK-MEL-5 melanoma): 3110 nM | GI50 (KM12 colon): 1210 nM | TGI (KM12 colon): 2450 nM | GI50 (LOX IMVI melanoma): 1390 nM | TGI (LOX IMVI melanoma): 2800 nM | GI50 (UACC-62 melanoma): 1720 nM | TGI (UACC-62 melanoma): 3310 nM | GI50 (IGROV1 ovarian): 1440 nM | TGI (IGROV1 ovarian): 2880 nM | GI50 (T-47D breast): 1490 nM | TGI (T-47D breast): 3030 nM | GI50 (HCC-2998 colon): 1410 nM | TGI (HCC-2998 colon): 2920 nM | GI50 (OVCAR-5 ovarian): 1320 nM | TGI (OVCAR-5 ovarian): 2680 nM | GI50 (MALME-3M melanoma): 1860 nM | TGI (MALME-3M melanoma): 3780 nM | GI50 (NCI-H23 lung): 1560 nM | TGI (NCI-H23 lung): 3230 nM | GI50 (HL-60(TB) leukemia): 2030 nM | TGI (HL-60(TB) leukemia): 4350 nM | GI50 (M14 melanoma): 1780 nM | TGI (M14 melanoma): 3500 nM | GI50 (MDA-MB-231 breast): 477 nM | TGI (MDA-MB-231 breast): 1910 nM | GI50 (HOP-62 NSCLC): 1930 nM | TGI (HOP-62 NSCLC): 3560 nM | GI50 (NCI/ADR-RES ovarian): 1400 nM | TGI (NCI/ADR-RES ovarian): 3030 nM | GI50 (COLO 205 colon): 1350 nM | TGI (COLO 205 colon): 2850 nM | GI50 (HS 578T breast): 1560 nM | TGI (HS 578T breast): 3640 nM | GI50 (SN12C renal): 1460 nM | TGI (SN12C renal): 3330 nM | GI50 (NCI-H522 lung): 1250 nM | TGI (NCI-H522 lung): 2570 nM | GI50 (SW-620 colon): 1140 nM | TGI (SW-620 colon): 2660 nM | GI50 (SF-268 CNS): 1510 nM | TGI (SF-268 CNS): 3120 nM | GI50 (OVCAR-3 ovarian): 1670 nM | TGI (OVCAR-3 ovarian): 3050 nM | GI50 (RXF 393 renal): 1330 nM | TGI (RXF 393 renal): 2730 nM | GI50 (SK-OV-3 ovarian): 1770 nM | TGI (SK-OV-3 ovarian): 3160 nM | GI50 (A498 renal): 1420 nM | TGI (A498 renal): 2780 nM | GI50 (HCT-15 colon): 989 nM | TGI (HCT-15 colon): 2450 nM | GI50 (SNB-19 CNS): 1500 nM | TGI (SNB-19 CNS): 3180 nM | GI50 (A549 NSCLC): 1360 nM | TGI (A549 NSCLC): 2910 nM | GI50 (SF-539 CNS): 1850 nM | TGI (SF-539 CNS): 3450 nM | GI50 (RPMI-8226 leukemia): 466 nM | TGI (RPMI-8226 leukemia): 2300 nM | GI50 (BT-549 breast): 1740 nM | TGI (BT-549 breast): 3460 nM | GI50 (SNB-75 CNS): 1560 nM | TGI (SNB-75 CNS): 2950 nM | GI50 (TK-10 renal): 1910 nM | TGI (TK-10 renal): 3370 nM | GI50 (UO-31 renal): 1520 nM | TGI (UO-31 renal): 2940 nM | GI50 (CAKI-1 renal): 1090 nM | TGI (CAKI-1 renal): 2370 nM | GI50 (SK-MEL-28 melanoma): 1640 nM | TGI (SK-MEL-28 melanoma): 3250 nM | GI50 (HCT-116 colon): 1320 nM | TGI (HCT-116 colon): 2750 nM | GI50 (ACHN renal): 1190 nM | TGI (ACHN renal): 2480 nM | GI50 (DU-145 prostate): 1040 nM | TGI (DU-145 prostate): 2220 nM | GI50 (U251 CNS): 1200 nM | TGI (U251 CNS): 2470 nM | GI50 (NCI-H226 lung): 1510 nM | TGI (NCI-H226 lung): 3270 nM | GI50 (HOP-92 NSCLC): 1100 nM | TGI (HOP-92 NSCLC): 2540 nM
